Data on two molecules can be found in publication PMC7321108, “1-Hydroxyanthraquinones Containing Aryl Substituents as Potent and Selective Anticancer Agents” (Molecules, 2020).

The term melting point denotes the temperature, or range, at which the solid turns liquid. What is called GI50 is the concentration giving 50% growth inhibition.

Series [1] relates to U-87MG glioblastoma cells. Kind of series: MTT cytotoxicity assay, U-87MG. To be noted: Homo sapiens, 72 h incubation, mean ± SEM of three experiments, read-out: Cytotoxicity (GI50) against U-87MG. It is filed as cell-based. In outline:
(§1)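 72 h compound exposure (DMSO vehicle), RPMI-1640/10% calf serum, 37 °C, 5% CO2; triplicates. 1% MTT 4 h, DMSO solubilization, OD 450 nm. GI50 = conc. giving 50% cell death / 2-fold OD drop vs untreated wells; mean ± SEM of three independent experiments.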

Series [2] relates to MT-4 cells of T-cellular human leucosis. The experiment in a line: MTT cytotoxicity assay, MT-4. It is filed as cell-based. The following applies: MT4, 72 h incubation, mean ± SEM of three experiments, read-out: Cytotoxicity (GI50) against MT-4. In outline: as §1
(In general: Tetrazolium assays rely on reduction of a dye to a coloured formazan, in cell work by metabolically active cells.)

Series [3] relates to pUC19 DNA plasmid. Kind of series: Gel retardation (electrophoretic mobility shift) assay. In kind it is binding. To be noted: 0.5 µg pUC19 plasmid, 0.025 µM test compound, room temperature 1 h, agarose gel 60 V 4 h. On the procedure:
The interaction of compounds 13, 15, 16, 23, 25 27, 28, 35, 40 and 44 with DNA was experimentally confirmed by study of the electrophoretic mobility. For this the gel retardation assay was performed. Doxorubicin in different concentration was used as a positive control. In order to avoid destruction of the possible complex of DNA with compounds, the electrophoresis was performed at low voltage. The results are presented at Figure 3.
To study the interaction between test compounds and DNA the electrophoretic mobility shift assay was performed. 0.5 µg of pUC19 plasmid was incubated with 0.025 µM of test compounds at room temperature for 1 h. After that the electrophoresis was performed in agarose gel (1/2%) in TBE buffer (60 V, 4 h). For visualization the gel was staining with ethidium bromide and analyzed with Bio-Rad gel documentation system.
On the technique in general: In EMSA bound probe runs differently from free probe, usually more slowly.

The test system of series [4] is DU-145 cells. The experiment in a line: Cell cycle analysis by flow cytometry (Hoechst 33342), DU-145. It is filed as cell-based, human. To be noted: DU-145, treated at GI50 concentration, 24 h. On the procedure: We have carried out flow cytometric study of compounds 13, 16 and the isomeric compound 25 (Table 4, Figure 4G,H). Concentrations of 16 and 25 were taken as 5.4 and 14.5 μM, respectively, as per cytotoxic studies (Table 1). After examining the data for 13 (Figure 4G, Table 4), a good number of cells are arrested in Sub-G1, G0/G1 and S phase. Biosynthetic activity is very high during Sub-G1 phase; this is probably achieved by enhancing of apoptosis. The isomeric molecule 25 arrest G0/G1 and S phases, i.e., affecting the DNA synthesis/replication mechanism. Similarly, for 25 a different pattern is observed, i.e., variations at S and G2/M phases were observed, in comparison to the control. […] Some difference in the mechanism of operation of 13 and 25 has been observed during the progression of cell cycle like: Sub-G1 phase was highly disturbed by 13 and S and G0/G1 phases were highly disturbed by 25.
For cell cycle analysis cells were seeded in 6-well plates (30,000 per plate) and incubate for adhesion for 24 h. […] Cells were washed with PBS twice, harvested, pelleted and resuspended in 0.5 mL of PBS. For staining the Hoechst 33342 Ready Flow Reagent (Invitrogen) was used according to the instruction. CytoFLEX flow cytometer (Beckman Coulter) was used for analysis. The results are presented as a percentage of cell population standing in different stages of the cell cycle.
For orientation: Flow cytometry measures light scatter and fluorescence of single cells or particles in a stream.

Series [5] is described as follows: MTT cytotoxicity assay, normal hTERT-immortalized lung fibroblasts. To be noted: human, hTERT-immortalized lung fibroblasts (normal cell line), 72 h incubation, mean ± SEM of three experiments, read-out: Cytotoxicity (GI50) against hTERT Lung Fibroblasts. In kind it is cell-based. An outline of the steps: as §1
Series [6] has as its system LNCAP prostate cancer cells. The experiment in a line: MTT cytotoxicity assay, LNCAP. In kind it is cell-based, human. The following applies: Homo sapiens, LNCaP, 72 h, 72 h incubation, mean ± SEM of three experiments, read-out: Cytotoxicity (GI50) against LNCAP. An outline of the steps:
as §1

In series [7] the test system is MDA-MB-231 breast cancer cells. Kind of series: MTT cytotoxicity assay, MDA-MB-231. To be noted: Homo sapiens, 72 h incubation, mean ± SEM of three experiments, read-out: Cytotoxicity (GI50) against MDA-MB-231. In kind it is cell-based. An outline of the steps:
as §1

Series [8] concerns SNB-19 cells. Kind of series: DNA synthesis investigation (BrdU/PI flow cytometry), SNB-19. It is filed as cell-based, human. The following applies: SNB-19, treated at GI50 concentration, 24 h, BrdU 30 min.
Description: Cell cycle analysis was performed by Flow Cytometry using BrdU and PI staining [63]. For this experiment cells were seeded in 6-well plates (30,000 per plate) and incubate for adhesion for 24 h. […] For the next step the BrdU stock was added at a final concentration of 30 µM and cells were incubated for 30 min. Cells were washed with PBS, harvested using trypsine and resuspended at 0.3 mL of PBS. Permeabilization of cell membrane was performed as follows: 0.7 mL of ice-cold 100% EtOH was added into each sample, mixed gently and incubate at 4 °C for 1 h. Cells were pelleted and supernatant was removed completely. Then 0.5 mL of 2 N HCl/0.5% Triton X-100 was added and samples were incubated 30 min at room temperature. Cells were pelleted again, supernatant was removed. The pellet was resuspended in 0.5 mL of 0.1 M sodium tetraborate for 2 min and cells were pelleted again, washed with 150 µL of PBS/1% BSA and resuspended in 50 µM 0.5% Tween 20/1% BSA/PBS. […] After that the samples were resuspended in 0.5 mL of PBS containing 10 mg/mL RNAse A and 20 mg/mL PI. Samples were incubated at room temperature for 30 min and analyzed immediately or store at 4 °C. CytoFLEX flow cytometer (Beckman Coulter) was used for analysis. The results are presented as a percentage of cell population standing in DNA synthesis process.
For series [9], the system named is SNB-19 glioblastoma cells. The experiment in a line: MTT cytotoxicity assay, SNB-19. In kind it is cell-based. To be noted: Homo sapiens, 72 h incubation, mean ± SEM of three experiments, read-out: Cytotoxicity (GI50) against SNB-19. In outline:
as §1

The test system of series [10] is T98G glioblastoma cells. Kind of series: MTT cytotoxicity assay, T98G. In kind it is cell-based. The following applies: Homo sapiens, 72 h incubation, mean ± SEM of three experiments, read-out: Cytotoxicity (GI50) against T98G. An outline of the steps: as §1

Consider `COc1cccc(-c2ccc(O)c3c2C(=O)c2ccccc2C3=O)c1OC` [Compound 16, 1-(2,3-Dimethoxyphenyl)-4-hydroxyanthracene-9,10-dione], for which the melting point was 213.6 °C (dec.). Further, in [1], the GI50 is > 100 µM. Besides, in series [2], the GI50 was > 100 µM. The “Retardation of plasmid DNA (electrophoretic mobility)” value in series [3] is “cause a retardation of plasmid DNA”. For the same molecule, in series [4], the “Population (% Cell Distribution) G0/G1” value is given as 44.3%, the “Population (% Cell Distribution) G2/M” value came to 7.3%, the “Population (% Cell Distribution) S” value amounted to 30.7% and the “Population (% Cell Distribution) Sub-G1” value is reported as 15.7%. Also, in series [4], the “Population (% Cell Distribution) Super-G2” value stood at 2.0%. In series [5], the GI50 at 72 h amounted to 48 ± 3.87 µM. Further, the GI50 in series [6] was > 100 µM. Further, in series [7], the GI50 was 16.5 ± 0.88 µM. In addition, in series [8], the “Population (% Cell Distribution) DNA Synthesis” value is 28.67%. For the same molecule, the GI50 in series [9] was 9.7 ± 0.41 µM. Moreover, the GI50 in series [10] came out at 25.1 ± 1.04 µM.

As to `O=C1c2ccccc2C(=O)c2c(-c3ccccc3)ccc(O)c21` [Compound 13, 1-Hydroxy-4-phenylanthracene-9,10-dione], the melting point is 207.3 °C (dec.). For the same molecule, in [1], the GI50 was > 100 µM. Further, the GI50 in series [2] was 71 ± 0.7 µM. The “Retardation of plasmid DNA (electrophoretic mobility)” value in [3] is “cause a retardation of plasmid DNA”. Moreover, in [4], the “Population (% Cell Distribution) G0/G1” value was found to be 28.7%, the “Population (% Cell Distribution) G2/M” value turned out to be 6.3%, the “Population (% Cell Distribution) S” value is given as 28.7% and the “Population (% Cell Distribution) Sub-G1” value is reported as 34.6%. Also, the “Population (% Cell Distribution) Super-G2” value in series [4] was determined as 1.6%. For the same molecule, the GI50 at 72 h in series [5] came out at 67.1 ± 8.06 µM. The GI50 in [6] was 24 ± 1.47 µM. Besides, the GI50 in series [7] stood at 31.2 ± 1.65 µM. The “Population (% Cell Distribution) DNA Synthesis” value in series [8] came out at 28.63%. For the same molecule, the GI50 in series [9] was determined as 24.3 ± 1.08 µM. Further, the GI50 in series [10] stood at 14.1 ± 0.65 µM.
